According to PubChem BioAssay (NCI):
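Following 48 hours of exposure in 96-well plates, responses at five concentrations were used to interpolate endpoints linearly. TGI is the concentration that stops growth completely.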

Legend:
Assay in all cases: growth of human tumour cells (NCI), 48 h
A498 renal = test system: A498 renal
ACHN renal = test system: ACHN renal
COLO 205 colon = test system: COLO 205 colon
HCT-116 colon = test system: HCT-116 colon
HL-60(TB) leukemia = test system: HL-60(TB) leukemia
HOP-62 NSCLC = test system: HOP-62 NSCLC
M14 melanoma = test system: M14 melanoma
MDA-MB-231 breast = test system: MDA-MB-231 breast
NCI-H522 lung = test system: NCI-H522 lung
NCI/ADR-RES ovarian = test system: NCI/ADR-RES ovarian
OVCAR-4 ovarian = test system: OVCAR-4 ovarian
OVCAR-8 ovarian = test system: OVCAR-8 ovarian
PC-3 prostate = test system: PC-3 prostate
SF-295 CNS = test system: SF-295 CNS
SK-OV-3 ovarian = test system: SK-OV-3 ovarian
SN12C renal = test system: SN12C renal
SNB-75 CNS = test system: SNB-75 CNS
TK-10 renal = test system: TK-10 renal
BT-549 breast = test system: BT-549 breast
NCI-H460 lung = test system: NCI-H460 lung

| SMILES | TGI (A498 renal) [µM] | TGI (ACHN renal) [µM] | TGI (COLO 205 colon) [µM] | TGI (HCT-116 colon) [µM] | TGI (HL-60(TB) leukemia) [µM] | TGI (HOP-62 NSCLC) [µM] | TGI (M14 melanoma) [µM] | TGI (MDA-MB-231 breast) [µM] | TGI (NCI-H522 lung) [µM] | TGI (NCI/ADR-RES ovarian) [µM] | TGI (OVCAR-4 ovarian) [µM] | TGI (OVCAR-8 ovarian) [µM] | TGI (PC-3 prostate) [µM] | TGI (SF-295 CNS) [µM] | TGI (SK-OV-3 ovarian) [µM] | TGI (SN12C renal) [µM] | TGI (SNB-75 CNS) [µM] | TGI (TK-10 renal) [µM] | TGI (BT-549 breast) [µM] | TGI (NCI-H460 lung) [µM] |
| --- | --- | --- | --- | --- | --- | --- | --- | --- | --- | --- | --- | --- | --- | --- | --- | --- | --- | --- | --- | --- |
| COC(=O)C1(C(=O)OC)CC2=C(S(=O)(=O)c3ccccc3)C[C@H](C#N)[C@H]2C1 | > 100 | > 100 | > 100 | > 100 | > 100 | > 100 | > 100 | > 100 | > 100 | > 100 | > 100 | > 100 | > 100 | > 100 | > 100 | > 100 | > 100 | > 100 |  |  |
| CCOC(=O)c1cc2cc(C)cc(C(=O)c3ccc([N+](=O)[O-])cc3)c2[nH]1 | > 100 | > 100 | > 100 | > 100 | > 100 | > 100 | > 100 | > 100 | > 100 |  | > 100 |  | > 100 | > 100 | > 100 | > 100 | > 100 | > 100 | > 100 | > 100 |
| O=C(/C=C/c1ccc2c(c1)OCO2)CC(=O)/C=C/c1ccc2c(c1)OCO2 |  | > 100 | > 100 | > 100 | > 100 | > 100 | > 100 | > 100 | > 100 | > 100 | 68.5 |  | > 100 | > 100 | > 100 | > 100 | > 100 | > 100 |  | > 100 |
| CC1=C2CN(C(=O)OCC(C)C)CCC2C2=C(C(=O)c3ccccc3C2=O)C1C (centres undefined) |  |  | > 10 |  | > 10 | > 10 | > 10 | > 10 |  |  | > 10 | > 10 | > 10 | > 10 | > 10 | > 10 | > 10 | > 10 |  |  |
| Cc1cc(=O)[nH]c(NNC(C#N)c2ccco2)n1 (centres undefined) |  | > 100 | > 100 | > 100 | > 100 | > 100 | > 100 |  | > 100 |  | > 100 | > 100 |  | > 100 | > 100 | > 100 | > 100 | > 100 |  | > 100 |
| CC1(O)Oc2ccc3ccccc3c2C=C1C(N)=O (centres undefined) | > 100 | > 100 | > 100 | > 100 | > 100 | > 100 | > 100 | 93.8 |  |  | > 100 |  | > 100 | > 100 | > 100 |  | > 100 | > 100 |  | > 100 |
| COC(=O)N/N=C(/Cc1occc(=O)c1O)C(=O)Nc1ccc([N+](=O)[O-])cc1[N+](=O)[O-] | > 100 | > 100 | > 100 | > 100 | > 100 | > 100 | > 100 |  | > 100 |  | > 100 | > 100 |  | > 100 | > 100 | > 100 | > 100 | > 100 |  | > 100 |
| Clc1ccc(-c2nnc(-c3c(Cl)c(Cl)c(Cl)c(Cl)c3-c3nc4ccccc4[nH]3)o2)cc1 | > 100 | > 100 | > 100 | > 100 | > 100 | > 100 | > 100 |  | > 100 | > 100 | > 100 | > 100 | > 100 | > 100 | > 100 | > 100 | > 100 |  | > 100 | > 100 |
| CC[C@H]1C=CCC[C@@]2(C[C@@H]3CC[C@H]4[C@H](C(=O)OCCCCCCCCCCCCCCCC(=O)N(CCCN)C[C@@H](O)CCN)[C@]5(CCC[C@@H](C)O5)NC(=[N+]34)N2)O1 | 3.09 | 1.84 | 1.3 | 1.31 | 1.35 | 2.69 | 0.495 |  | 2.72 | 4.81 | 2.44 | 2.92 | 2.06 | 3.31 | 3.28 | 2.19 |  | 2.98 | 4.27 | 1.87 |
| O=C1NC2C(CCO)CC=C[C@H]2c2cc3c(cc21)OCO3 (some centres undefined) |  | > 100 | > 100 | > 100 | > 100 | > 100 | > 100 |  | > 100 |  |  | > 100 |  | > 100 | > 100 | > 100 | > 100 | > 100 |  | > 100 |
| COc1cccc(C2c3cc4c(cc3OC(N3CCCCC3)C2C)OCO4)c1OC (centres undefined) | 28.4 | 35.1 | 29 | 12.1 |  | 50.1 | 47.1 | 41 | 29 |  |  | > 100 | 42.8 | 22.5 | > 100 | 96.8 | 66.7 | 84.1 | 57.4 | 27.9 |
| COC1=CC(=O)C2C(C1=O)C(c1ccc(OC)c(OC)c1)[C@H]2C (some centres undefined) | > 100 | 33.4 | 36.9 | 31.9 | 46.7 | > 100 | 34.9 |  | 26.1 |  | 30.6 | 42.5 |  | > 100 | > 100 |  | > 100 | 33.3 |  | > 100 |
| Nc1ncnc2c1ncn2C1CC(OC2CCCCO2)C(CO)O1 (centres undefined) | > 100 | > 100 | > 100 | > 100 | > 100 | > 100 | > 100 |  | > 100 |  | > 100 | > 100 |  | > 100 | > 100 | > 100 |  | > 100 |  | > 100 |
| CC/C(SC)=[N+](\C)[O-] | > 100 | > 100 | > 66.9 | > 68.4 | 25.2 | > 100 | > 100 |  | > 62.3 |  | > 100 | > 100 |  | > 100 | > 100 | > 100 | > 100 | > 100 |  | > 100 |
| CN(C)c1nc(=NCc2cccnc2)ss1 |  |  | > 10 |  | > 10 | > 10 | > 10 | > 10 |  |  | > 10 | > 10 | > 10 | > 10 | > 10 | > 10 | > 10 | > 10 |  |  |
| CC1c2cc(c3c(c2O)CN([C@@H](C)C2CCCCC2)CO3)C(C)c2cc(c3c(c2O)CN([C@@H](C)C2CCCCC2)CO3)C(C)c2cc(c3c(c2O)CN([C@@H](C)C2CCCCC2)CO3)C(C)c2cc1c1c(c2O)CN([C@@H](C)C2CCCCC2)CO1 (some centres undefined) | 3.57 | 2.78 | 2.65 | 2.04 | 5.59 |  | > 23.7 | 2.7 | 1.58 | 2.67 | 3.03 | 2.4 |  |  | 2.72 | 2.29 | 2.77 | 3.19 | 3.49 | 2.53 |
| Fc1ccc2c3c([nH]c2c1)CCNC3 | 65.9 | > 100 | > 100 | > 100 | > 100 | > 100 | > 100 | > 100 |  | > 100 | > 100 | > 100 |  | > 100 | > 100 | > 100 | > 100 | > 100 |  | > 100 |
| CCO/C=C(\C(=O)OC)S(=O)(=O)c1ccc(C)cc1 |  | > 100 | > 100 | > 100 | > 100 | > 100 | > 100 | > 100 | > 100 | > 100 | > 100 | > 100 | > 100 | > 100 | > 100 | > 100 | > 100 | > 100 |  | > 100 |
| CN1N=C2c3ccccc3CC[C@H]2C1c1cccc(O)c1 (some centres undefined) | > 100 | > 100 | > 100 | > 100 | > 100 | > 100 | > 100 |  | > 100 |  | > 100 | > 100 |  | > 100 | > 100 | > 100 |  | > 100 |  | > 100 |
| OC(CC(O)(C(F)(F)F)C(F)(F)F)C(O)c1ccco1 (centres undefined) | > 10 | > 10 | > 10 | > 10 | > 10 | > 10 | > 10 | > 10 | > 10 | > 10 | > 10 | > 10 | > 10 | > 10 | > 10 | > 10 | > 10 | > 10 |  | > 10 |
| C/C(=N/NC(N)=S)C(CN(C)C)C(C1=C(O)c2ccccc2OC1)c1ccccc1 (centres undefined) | > 100 | > 100 | > 100 | > 100 | > 100 | > 100 | > 100 |  | > 100 |  | > 100 | > 100 |  | > 100 | > 100 | > 100 | > 100 | > 100 |  | > 100 |
| CC1C(O)Oc2cc3c(cc2C1c1ccccc1O)OCO3 (centres undefined) | 82.7 | > 100 | 31 | 35.5 | 36.7 | > 100 | > 100 | 65.4 | 42.9 |  |  | > 100 | 65.7 | 65.5 | > 100 | > 100 | 87.4 | 89.6 | > 100 | 64.1 |
| Cc1cn(C2CC(NC(=NCC3OC(n4cnc5c(N)ncnc54)CC3O)NC#N)C(CO)O2)c(=O)[nH]c1=O (centres undefined) | > 100 | > 100 | > 100 | > 100 | > 100 | > 100 | > 100 | > 100 | > 100 | > 100 | > 100 | > 100 | > 100 | > 100 | > 100 | > 100 | > 100 | > 100 |  | > 100 |
| COc1ccc2c(c1)OC(c1ccccc1O)CC2=O (centres undefined) | > 100 | > 100 |  | > 100 |  | > 100 | > 100 |  | 92.8 |  | > 100 | > 100 |  | > 100 |  | > 100 | > 100 | > 100 |  | > 100 |
| COc1ccc(C2S/C(=C\c3ccccc3)C(=O)N2NC(=O)Cc2ccccc2)cc1 (centres undefined) | > 100 | > 100 | > 100 | > 100 | > 100 | > 100 | > 100 |  | > 100 |  | > 100 | > 100 |  | > 100 | > 100 | > 100 | > 100 | > 100 |  | > 100 |
| O=C(N/N=C(\c1nc2ccc(Cl)cc2[nH]c1=O)C(O)c1ccccc1Cl)c1ccncc1 (centres undefined) | > 100 | > 100 | > 100 | > 100 | > 100 |  | > 100 |  | > 100 |  | > 100 |  |  | > 100 | > 100 |  | > 100 | > 100 |  | > 100 |
| CC(C)C1COC(c2ccc3ccccc3c2-c2c(O[Si](C)(C)C(C)(C)C)ccc3ccccc23)=N1 (centres undefined) | 36.2 | 33.2 | 33.6 |  | 33.1 | 33.4 | 29.2 |  | 29.8 |  | 36.1 | 35.3 |  | 32.1 | 34.5 | 33.2 | 32.5 | 33 |  | 37.4 |
